Target: T1, Human Factor D (Homo sapiens, UniProt P00746)
T1 construct: purified from human serum
Experiment: Human Factor D Assay
Format: biochemical
Conditions: Human Factor D 80 nM, substrate Z-L-Lys-SBzl, assay of Example 12
Description: Human Factor D (purified from human serum, Complement Technology, Inc.) at 80 nM final concentration was incubated with test compound at various concentrations for 5 minutes at room temperature in 50 mM Tris, 1M NaCl, pH 7.5. A synthetic substrate Z-L-Lys-SBzl and DTNB (Ellman's reagent) are added to final concentrations of 100 μM each. Absorbance at 405 nm (A405) was recorded at 30 second intervals for 30 minutes using a microplate spectrophotometer. IC50 values are calculated by nonlinear regression of complement Factor D reaction rates as a function of test compound concentration.
The assay of Example 12 was used to determine the IC50's of the compounds. Other standard Factor D inhibition assays are also available.

T1 sequence (P00746 26-253): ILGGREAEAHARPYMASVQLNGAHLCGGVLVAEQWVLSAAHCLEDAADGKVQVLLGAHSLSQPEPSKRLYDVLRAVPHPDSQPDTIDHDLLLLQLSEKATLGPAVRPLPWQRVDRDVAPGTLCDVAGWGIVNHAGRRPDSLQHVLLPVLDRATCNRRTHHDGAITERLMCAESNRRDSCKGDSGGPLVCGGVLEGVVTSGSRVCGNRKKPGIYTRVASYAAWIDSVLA

IC50: > 10 µM
SMILES: Cc1cccc(NC(=O)[C@@H]2CC=CCN2C(=O)Cn2cc(C(N)=O)c3cc(Nc4cccnn4)ccc32)n1 [compound 1, (S)-1-(2-(6-((6-methylpyridin-2-yl)carbamoyl)-5,6-dihydropyridin-1(2H)-yl)-2-oxoethyl)-5-(pyridazin-3-ylamino)-1H-indole-3-carboxamide]

From patent US10906887B2, “Amino compounds for treatment of immune and inflammatory disorders” (Achillion Pharmaceuticals, Inc., priority 2015, dated 2021)
